According to patent US20240140953A1, “INHIBITORS OF MENIN-MLL INTERACTION” (BIOMEA FUSION, INC., priority 2018, published 2024):
Like-named read-outs stand apart in the source and are kept apart here.

Key:
MV-4-11 = assay: Long term proliferation assay (Table 3A), MV-4-11; type: cell-based; conditions: Homo sapiens, MV4-11
Experimental: (§1) Example 5b: IC50 determination of compounds of invention in various cell lines (Long Term Proliferation Assay)
(§2) The following 5 cell lines are used or can be used for the long term proliferation assay.
(§3) Compounds of invention are tested in the 5 suspension lines by 14-day long-term proliferation assay.
(§4) The compound is tested in 10-pt dose titration (client will determine the starting concentration and the dilution scheme) and the final DMSO concentration is kept at 0.2%.
(§5) Vehicle and media control are also included. All treatments are done in triplicate.
(§6) 3 plates are used for each cell line and 15 plates are used for the 5 cell lines.
(§7) • 1) On Day 0, in a flat bottom 96-well plate, add 100 μL of cells per well at the densities optimized. • 2) Prepare compounds in DMSO at 500× final concentration. Dilute the compounds with DMSO at the dilution. • 3) Dilute the compounds in media at 3×final concentration. Add 50 μL of compound or DMSO at 3× final concentration to each well. Final volume in each well is 150 μL, and final concentration of DMSO is 0.2%. Also include 3 untreated control wells, by adding 50 μL of media alone. 4) Incubate plates for 96 hours. • 5) Count the cells using the Acumen, with capabilities for 96-well plates. Pipette cells up and down to mix in each well, and add desired volume of cells to a new flat bottom poly-D-lysine 96-well plate. Add Calcein AM at 1 μM final concentration. Let cells sit at RT for 10 mins followed by a quick spin to get cells settled on the bottom of the wells. Incubate the plate for additional 40 mins in the incubator. Take out the plate and read by Acumen. Calculate the cell numbers taken into account the dilution factors. • 6) Split the master plate. To do this take the total viable cell count calculated using step 5). Take the average of the replicates for each dose in order to be used in splitting the cells. • 7) Use a 96 well V-bottom plate to spin down the cells to remove old media and compound to split the cells. Based on the split ratio place the proper amount of media and cells into the V-bottom plate, and spin the plate at 1100 rpm for 5 minutes. • 8) Following the spin remove the media, careful not to disturb the cellpellet. • 9) Re-suspend pellet in 100 μL fresh media, and add to a new 96-well flat bottom plate. • 10) Add fresh compound, in the same manner as Step 3). • 11) Incubate plates for 72 hours. Repeat steps 5)-10) on Day 7. • 12) Incubate plates for 96 hours. Repeat Step 5)-10) on Day 11. • 13) Incubate 72 hours and repeat step 5) to take a final count. • 14) Data Analysis
(§8) To calculate growth for days 4, 7, 11, and 14: • Calculate the split factor for day 4 to 7, day 7 to 11, and day 11-14.

MOLM-13 = assay: Long term proliferation assay (Table 3A), MOLM-13; type: cell-based; conditions: Homo sapiens
Experimental: as §1, §2, §3, §4, §5, §6, §7, §8

HL-60 [1] = assay: Proliferation study, CellTiterGlo, 4 days (Example 102), HL-60; type: cell-based; conditions: HL-60, 4 days treatment
Excerpt: (§9) The objective of the study was to evaluate the ability of representative compounds of the present invention, inhibitors of Menin/MLL interaction to inhibit cell proliferation. The proliferation inhibitory effect was investigated in two human MLL-leukemia cells selected on the bases of MLL fusion protein and listed in Table 102. HL-60 cell line was used as negative control.
(§10) ATP is present in all metabolically active cells and is considered as a marker for cell viability and proliferation. The metabolic cell activity was determined using the CellTiter-Glo kit from Promega, an ATP monitoring system based on the production of luminescence by the reaction of ATP with added UltraGlo® recombinant luciferase (Kawano et al., 2016), according to the supplier's experimental recommendations.
(§11) The described assay evaluates the ability of 4 representative compounds to inhibit the cell proliferation in the human MLL-leukemia cells plus a negative control cell line.
(§12) The assay provides potency values (IC50) for each test compound at a single time point Day 4 (T4).
(§13) Seven concentrations of the compounds (2.00E-05-6.67E-06-2.22E-06-7.41E-07-2.47E-07-8.23E-08-2.74E-08M), were assessed in duplicate in an individual test occasion in all the cell lines. MI-503 (Borkin et al., 2015) was used as reference compound and was tested at the same concentrations as the NCEs. 100% of proliferation is represented by the untreated cells (0.2% DMSO). The cell growth was monitored up to 4 days in culture.
(§14) MV4-11, MOLM-13 and HL-60 cells (see Table 2) were maintained in RPMI-1640 medium (Invitrogen, Cat. n. 618700, Batch n. 1965930) supplemented with 10% of Heat Inactivated FBS (Invitrogen, Cat n. 10500, Batch n. 08Q8078K) and 1% Pen-Strep (Invitrogen, Cat. N. 15140, Batch n. 1910859) and cultured at 37° C. in a humidified incubator with 5% CO2. All the cell lines grow in suspension and the cell density was maintained in a range of 2×10^5-1×10^6 viable cells/ml. Cells were pelleted at 130 g×5 min and conditioned medium was used to dilute the cell suspension.
(§15) Test items were dissolved in glass vials at 10 mM in DMSO with purity ≥99.9% (Sigma, D8418, batch n. SHBH4245V) and stored at −20° C. in 1.5 mL Eppendorf tubes.
(§16) Serial dilutions 1 to 3 in DMSO 100% were prepared starting from a 10 mM stock solutions to generate 7 points concentration response curve (CRC).
(§17) For each plate to test, one 0.4 μL copy plate and four 0.3 μL copy plates were then stamped into 96-well plates not treated for cell adhesion (Sarstedt—cat.no. 82.1581.001) by acoustic liquid Handling, Echo, at a concentration which was 500 fold the final assay concentration. Stamped plates were stored at −20° C. The final concentrations for the reference compound, MI-503, and the test items were: 2.00E-05, 6.67E-06, 2.22E-06, 7.41E-07, 2.47E-07, 8.23E-08 and 2.74E-08 M.
(§18) Cells were plated in 96-well flat bottom microtiter plates at cell density of 15,000 cells/ml for HL-60, 1000 cells/ml for MOLM-13 and 10,000 cell/ml for MV4-11. Cells were treated with 0.2% DMSO (Sigma, D8418, batch n. SHBH4245V) or serial dilutions of compounds (0.027 μM-20 μM) in DMSO (0.2% final concentration). Cells were incubated in a 5% CO2 incubator at 37° C. for 4 days. A CellTiterGlo viability assay (Promega) was employed. Luminescence was read by using VictorV (Perkin Elmer) multilabel plate reader using the standard protocol for luminescence in 96 well plate. The experiment was performed in duplicate.
(§19) Data were expressed as % of inhibition compared to the 0.2% DMSO negative control, and was calculated as follows: […]
(§20) CRCs were analysed by GraphPad and IC50 values were calculated by non-linear regression using 4 parameter-logistic equation. IC50 (μM) values were reported in the final data table. The curve fittings were performed leaving free all the parameters. Any constrain were reported in the results table.

RS4-11 (MLL-AF4) = assay: LTP assay, CellTiterGlo, T4-T14 (Example 103), RS4-11; type: cell-based; conditions: RS4;11, LTP assay
Experimental: (§21) The day of the experiment (T0) all the cell line suspensions were counted by Cell Viability Analyser, Vi-CELL and properly diluted with fresh medium to obtain the cell density reported in the Test System paragraph.
(§22) Cells were tested after 4 passages after thawing.
(§23) 200 μL/well and 150 μL/well of cell suspension were added into the 0.4 μL/well and 0.3 μL/well compound plates, respectively. • Cell plate containing 200 μL/well suspension was incubated at 37° C. in a humidified incubator with 5% CO2. • From each well of the 150 μL/well cell assay plate, 100 μL were harvested and transferred into a 96-well Optiplate (Perkin Elmer, Cat. n. 6005290) and cell viability was measured as described in 4.3 paragraphs (T0).
(§24) After four days in culture (T4) 150 μL/well of fresh medium were added into a new 0.3 μL/well copy compound plate. • From each well of the 200 μL/well cell assay plate: • 100 μL were sampled for the cell viability measurement as described in 4.3 paragraphs (T4). • 50 μL were harvested and added to the 150 μL/well compound plate prepared as described in the first point to dilute 1:4 the cell suspension. • The cell assay plate diluted and containing 200 μL/well suspension were incubated at 37° C. in a humidified incubator with 5% Co2.
(§25) At T7-T11-T14 it was proceeded as described in T4, with the exception that no further cell dilution was carried out at T14.
(§26) Plates containing the samples to be tested were equilibrated at room temperature for approximately 30 min and then 30 μL/well of the Promega CellTiterGlo® reagent were added.
(§27) Contents will be mixed for 5 min on an orbital shaker to induce cell lysis and then incubated at room temperature for an additional 10 min to stabilize the luminescent signal.
(§28) Luminescence was read by using VictorV (Perkin Elmer) multilabel plate reader using the standard protocol for luminescence in 96 well plate.
as §19
(§29) CRCs were analysed by GraphPad and IC50 values were calculated by non-linear regression using 4 parameter-logistic equation. IC50 (μM) values were reported in the final data table.
(§30) The curve fittings were performed leaving free all the parameters. Any constrain were reported in the results table.

MV4-11 (MLL-AF4) [2] = assay: LTP assay, CellTiterGlo, T4-T14 (Example 103), MV4-11; type: cell-based, human; conditions: MV4-11, LTP assay
Experimental: as §21, §22, §23, §24, §25, §26, §27, §28, §19, §29, §30

MOLM-13 (MLL-AF9) [3] = assay: LTP assay, CellTiterGlo, T4-T14 (Example 103), MOLM-13; type: cell-based, human; conditions: MOLM-13, LTP assay
Experimental: as §21, §22, §23, §24, §25, §26, §27, §28, §19, §29, §30

HL-60 [4] = assay: LTP assay, CellTiterGlo, T4-T14 (Example 103), HL-60; type: cell-based; conditions: HL-60, LTP assay
Experimental: as §21, §22, §23, §24, §25, §26, §27, §28, §19, §29, §30

MOLM-13 (MLL-AF9) [5] = assay: Proliferation study, CellTiterGlo, 4 days (Example 102), MOLM-13; type: cell-based, human; conditions: MOLM-13, 4 days treatment
Excerpt: as §9, §10, §11, §12, §13, §14, §15, §16, §17, §18, §19, §20

MV4-11 (MLL-AF4) [6] = assay: Proliferation study, CellTiterGlo, 4 days (Example 102), MV4-11; type: cell-based, human; conditions: MV4-11, 4 days treatment
Excerpt: as §9, §10, §11, §12, §13, §14, §15, §16, §17, §18, §19, §20

[7] = MV-4-11, Day 4, read-out: MV-4-11 Day 4 IC50
[8] = MV-4-11, Day 11, read-out: MV-4-11 Day 11 IC50
[9] = 96 h, MOLM-13, Day 4, read-out: MOLM-13 Day 4 IC50
[10] = 264 h, MOLM-13, Day 11, read-out: MOLM-13 Day 11 IC50

| SMILES | IC50 (MV-4-11; [7]) [nM] | IC50 (MV-4-11; [8]) [nM] | IC50 (MOLM-13; [9]) [nM] | IC50 (MOLM-13; [10]) [nM] | HL-60 pIC50 (HL-60 [1]; CellTiterGlo) | IC50 (HL-60 [1]; CellTiterGlo, read-out: HL-60 IC50) [nM] | HL-60 % max (HL-60 [1]; maximal inhibition) [%] | inhibition of cell viability (in words) (RS4-11 (MLL-AF4)) | inhibition of cell viability (in words) (MV4-11 (MLL-AF4) [2]) | inhibition of cell viability (in words) (MOLM-13 (MLL-AF9) [3]) | inhibition of cell viability (in words) (HL-60 [4]) | MOLM-13 (MLL-AF9) pIC50 (MOLM-13 (MLL-AF9) [5]; CellTiterGlo) | IC50 (MOLM-13 (MLL-AF9) [5]; CellTiterGlo, read-out: MOLM-13 (MLL-AF9) IC50) [nM] | MOLM-13 (MLL-AF9) % max (MOLM-13 (MLL-AF9) [5]; maximal inhibition) [%] | MV4-11 (MLL-AF4) pIC50 (MV4-11 (MLL-AF4) [6]; CellTiterGlo) | IC50 (MV4-11 (MLL-AF4) [6]; CellTiterGlo, read-out: MV4-11 (MLL-AF4) IC50) [nM] | MV4-11 (MLL-AF4) % max (MV4-11 (MLL-AF4) [6]; maximal inhibition) [%] |
| --- | --- | --- | --- | --- | --- | --- | --- | --- | --- | --- | --- | --- | --- | --- | --- | --- | --- |
| O=C(Cc1cc(-c2cccnc2)no1)Nc1ccc(-c2cc3c(N4CCOCC4)ncnc3[nH]2)cc1 [Compound 5, N-{4-[4-(morpholin-4-yl)-7H-pyrrolo[2,3-d]pyrimidin-6-yl]phenyl}-2-[3-(pyridin-3-yl)-1,2-oxazol-5-yl]acetamide] | 129 | 66 | 115 | 32 |  |  |  |  |  |  |  |  |  |  |  |  |  |
| CC(C)c1c(-c2cccnc2)noc1NC(=O)Nc1ccc(-c2cc3c(N4CCOCC4)ncnc3[nH]2)cc1 [Compound 6, 1-{4-[4-(morpholin-4-yl)-7H-pyrrolo[2,3-d]pyrimidin-6-yl]phenyl}-3-[4-(propan-2-yl)-3-(pyridin-3-yl)-1,2-oxazol-5-yl]urea] | 229 | 74 | 178 | 50 |  |  |  |  |  |  |  |  |  |  |  |  |  |
| CC(C)c1cc(-c2cc3c(N4CCOCC4)ncnc3[nH]2)ccc1NC(=O)Nc1cc(-c2cccnc2)no1 [Compound 7, 1-{4-[4-(morpholin-4-yl)-7H-pyrrolo[2,3-d]pyrimidin-6-yl]-2-(propan-2-yl)phenyl}-3-[3-(pyridin-3-yl)-1,2-oxazol-5-yl]urea] | 891 | 631 | 933 | 871 |  |  |  |  |  |  |  |  |  |  |  |  |  |
| Cc1c(CN2CCC(Nc3ncnc4sc(CC(F)(F)F)cc34)CC2)ccc2c1cc(C#N)n2Cc1cn[nH]c1 [MI-503, reference compound] |  |  |  |  | 6.38 | 420 | 103 | fully inhibited cell viability | fully inhibited cell viability | fully inhibited cell viability | fully inhibited cell viability | 6.63 | 230 | 98 | 6.73 | 190 | 100 |
